Data as given in article PMC12676205, “New Se‐Compounds With Antileishmanial, Antitumor, and Carbonic Anhydrase Inhibitory Properties” (Archiv Der Pharmazie, 2025).

How the values were obtained:
HaCaT cells = assay: MTS cell viability assay in nonmalignant HaCaT cells; format: cell-based, human; settings: 48 h, mean ± SD
Method: (MTS) assay as previously described. Thus, the selenoesters were tested at seven different concentrations (1, 2.5, 5, 10, 25, 50, and 100 µM) during 48 h to determine their corresponding IC50 values.
The effect of each compound on the cell viability of HaCaT cells was tested using the MTS assay. The compounds (1–6) were dissolved in DMSO at a concentration of 10^−2 M, and serial dilutions were prepared. Briefly, the cells were seeded in a 96‐well plate at a density of 1 × 10^4 cells per well. After 24 h of incubation, the cells were treated with either DMSO or seven different concentrations of each selenoester (1, 2.5, 5, 10, 25, 50, and 100 µM) for 48 h in triplicate. At the end of the treatment duration, the media were removed and fresh media were added containing 20 μL of MTS (Promega, USA) per well. After 1 h incubation, the absorbances were read at a wavelength of 490 nm in a 96‐well multiscanner, and the ratio of viable cells was calculated. Data were obtained from at least three independent experiments performed in triplicate. The IC50 values were calculated using OriginPro 8.5.1 Software for nonlinear curve fitting, and Graphpad Prism 7.0 Software was used to represent the corresponding graphs.

[1] = tested on: breast cancer cell line HS 578 T; assay: NCI-60 five-dose assay, HS 578 T; format: cell-based, human; settings: 48 h; for GI50: Homo sapiens, Hs-578T
Method: (§1) All the compounds were selected for further testing since they fulfilled the set NCI one‐dose screening parameters for threshold inhibition. They were tested at five different concentrations (0.01, 0.1, 1, 10, and 100 μM) for 48 h against the same cell line panel and the dose–response curves along with three response parameters (50% growth inhibitory concentration [GI50], the 50% lethal concentration [LC50], and the total growth inhibition [TGI]) were calculated for every cancer cell line. The full reported data and corresponding graphs are compiled in Supporting Information S1. Average values of GI50, TGI, and LC50 values of all the reported selenoesters in all the subpanels are represented in Figure 4.
(§2) All the reported selenoesters (1–6) were submitted to the DTP of NCI. First, they were screened at a single dose (10^−5 M) against a panel of 60 cancer cell lines derived from different tumor types following the methodology available (https://dtp.cancer.gov/discovery_development/nci-60/methodology.htm). As all the compounds satisfied the threshold inhibition criteria established, they were further assessed at five concentrations (0.01, 0.1, 1, 10, and 100 µM) against the same cell panel to obtain their corresponding dose–response curves and three antitumor parameters (GI50, TGI, and LC50) by regression. GraphPad Prism 7.0 Software was used to represent the corresponding graphs.

[2] = tested on: A498 renal‐resistant cells; assay: NCI-60 five-dose assay, A498; format: cell-based; settings: Homo sapiens, 48 h
Method: as §1, §2

[3] = tested on: HT29 colon cancer cell line; assay: NCI-60 one-dose screen, HT29; format: cell-based, human; settings: 10 µM, 48 h
Method: (§3) To explore the potential antiproliferative properties of the newly synthesized derivatives, they were submitted to the National Cancer Institute's (NCI) Developmental Therapeutics Program (DTP) for screening at 10 μM in a panel of approximately 60 human cancer cell lines from different cancer types. The results are reported as the growth percentage (GP), which is the growth of the treated cells with each compound for 48 h compared to the untreated controls (Figure 2). […] The initial screening results are summarized in Figure 2, and the mean GP values of each subpanel are depicted in Figure 3. The full reports are compiled in the Supplementary Section.
as §2

THP‐1 cells = assay: THP-1 cytotoxicity (MTT, PMA-differentiated macrophages); format: cell-based, human; settings: 48 h, mean ± SD
Method: The synthesized compounds were tested for their antileishmanial activity against promastigotes of L. major and L. infantum at four concentrations (1, 10, 50, and 100 µM) for 48 h using the 3‐(4,5‐dimethylthiazol‐2‐yl)‐2,5‐diphenyltetrazolium bromide (MTT) assay. In this evaluation, the activity was expressed in IC50 (concentration inhibiting the parasite growth by 50%). […] The CC50 was defined as the concentration of selenoesters that led to a reduction in the viability of the macrophages, such that only 50% of the cells survived when compared to the control group. This cell line, derived from the blood of a human with acute monocytic leukemia, was chosen as it has been widely reported that it resembles tissue macrophages to various extents as well as supports the infection by numerous Leishmania promastigotes. The selectivity indexes (SIs) were calculated as the ratio between toxicity on macrophages (THP‐1 cells)/antileishmanial activity. The data for standard control drugs (miltefosine and paromomycin) are included for comparison purposes.
THP‐1 cells were seeded at a concentration of 8 × 10^4 cells per well in 96‐well plates and incubated with phorbol 12‐myristate 13‐acetate (PMA) (50 ng/mL) for 72 h (37°C and 5% CO2) to differentiate them into macrophages. After that, the culture medium was removed and the cells were treated with the reported selenoesters at different increasing concentrations ranging from 1 to 200 µM for 48 h at 37°C and 5% of CO2. Macrophages treated with DMSO (1%) were used as controls, and the compounds were dissolved in DMSO at a stock concentration of 10^−2 M. Afterward, the MTT assay was performed. Data were obtained from three independent experiments performed in triplicate. The absorbance was measured at 550 nm using a MultiskanEX photometric plate reader for microplates. The CC50 values were calculated using OriginPro 8.5.1. software by nonlinear curve fitting. SIs were calculated as the ratio of the CC50 values determined for the macrophages and the IC50 values obtained in each Leishmania promastigote. GraphPad Prism 7.0 Software was used to obtain the corresponding graphs.

HL‐60(TB) cells = assay: NCI-60 one-dose screen, HL-60(TB); format: cell-based, human; settings: 10 µM, 48 h
Method: as §3, §2

[4] = tested on: OVCAR‐5 ovarian cancer cells; assay: NCI-60 five-dose assay, OVCAR-5; format: cell-based, human; settings: 48 h
Method: as §1, §2

HOP‐62 = assay: NCI-60 five-dose assay, HOP-62; format: cell-based; settings: Homo sapiens, 48 h
Method: as §1, §2

MALME‐3M = assay: NCI-60 five-dose assay, MALME-3M; format: cell-based; settings: Homo sapiens, 48 h
Method: as §1, §2

For `N#Cc1ccc(NC(=O)C[Se]C(=O)c2ccccc2)cc1C(F)(F)F` [Compound 1, Se‐(2‐((4‐cyano‐3‐(trifluoromethyl)phenyl)amino)‐2‐oxoethyl)benzoselenoate], the IC50 (HaCaT cells; Homo sapiens, HaCaT) was 11800 ± 1890 nM, the GI50 [1] was 640 nM and the GI50 [2] was 890 nM.
`O=C(C[Se]C(=O)c1ccccc1)Nc1cccc(OC(F)(F)F)c1` [Compound 3, Se‐(2‐oxo‐2‐((3‐(trifluoromethoxy)phenyl)amino)ethyl)benzoselenoate] was tested, and the “behaviour in HT29” value [3] was “potent cytotoxic activity”, the IC50 (HaCaT cells) was 63700 ± 4320 nM and the IC50 (HaCaT cells; Homo sapiens, HaCaT) was about 64000 nM. It also gave a CC50 (THP‐1 cells) of over 200000 nM.
For `O=C(C[Se]C(=O)c1ccco1)Nc1cccc(OC(F)(F)F)c1` [Compound 6, Se‐(2‐oxo‐2‐((3‐(trifluoromethoxy)phenyl)amino)ethyl)furan‐2‐carboselenoate], the “behaviour in HL‐60(TB)” value (HL‐60(TB) cells) was “cytotoxic behavior”.
In the case of `O=C(C[Se]C(=O)c1ccco1)Nc1ccc([N+](=O)[O-])c(C(F)(F)F)c1` [Compound 5, Se‐(2‐((4‐nitro‐3‐(trifluoromethyl)phenyl)amino)‐2‐oxoethyl)furan‐2‐carboselenoate], the “cytotoxicity against OVCAR‐5” value [4] is reported as “remarkable cytotoxicity”.
`O=C(C[Se]C(=O)c1ccccc1)Nc1ccc([N+](=O)[O-])c(C(F)(F)F)c1` [Compound 2, Se‐(2‐((4‐nitro‐3‐(trifluoromethyl)phenyl)amino)‐2‐oxoethyl)benzoselenoate] was tested, and the GI50 (HOP‐62) was 860 nM, the IC50 (HaCaT cells; Homo sapiens, HaCaT) was 9490 ± 420 nM and the “TGI HS 578 T” value [1] was 890 nM. It also gave a GI50 [1] of 280 nM, a GI50 [2] of 800 nM and a GI50 (MALME‐3M) of 830 nM.
